{"source": "patent US20260335279A1", "about": "“METHODS OF TREATING ISCHEMIA-REPERFUSION INJURIES” (University of Cincinnati, priority 2022, published 2026)", "key": {"Glut1 [1]": {"system": "Glut1", "test": "Glut1 mRNA after I/R", "type": "in vivo, mouse", "conditions": "ML-264 treatment; vs I/R group treated with vehicle", "method": "(§1) The myocardial ischemia/reperfusion surgical protocol was applied as follows. Mice were anesthetized with 2% isoflurane inhalation until anesthesia was achieved. The animals' body temperature was maintained at 37 °C throughout the surgical procedure using a heating pad. A tracheal tube was placed via tracheal intubation and the respiration rate was set at 150 strokes/min with a tidal volume of 200 μL, using Minivent ventilator for mice (Model 845, Harvard Apparatus). A 1.2 cm incision was made over the left chest. After retraction of the pectoral major and minor muscles, the fourth intercostal space was exposed. […] The mouse was then monitored during the recovery period, which was generally completed within 3 to 5 minutes. […]\n(§2) Total RNA was purified from heart tissue using the TRIzol reagent according to the instructions of the manufacturer (ThermoFischer Scientific, Cat. No.: 15596018). cDNA synthesis was performed using the Applied Biosystems High Capacity cDNA Reverse Transcription Kit (ThermoFischer Scientific, Cat. No.: 4368814) from 500 ng RNA, which had been treated with DNAase I (ThermoFischer Scientific, Cat. No.: 18068015). Quantitative real-time PCR was performed with the SYBR Select Master Mix (ThermoFischer Scientific, Cat. No.: 4472903) using the manufacturer's recommendations. […]"}, "Glut1 [2]": {"system": "Glut1", "test": "GLUT1 protein levels after I/R", "type": "in vivo, mouse", "conditions": "ML-264 treatment; did not reach statistical significance", "method": "as §1\n(§3) Isolated myocardial tissue/isolated primary murine cardiomyocytes were homogenized in radioimmunoprecipitation assay buffer (RIPA buffer) containing protease and phosphatase inhibitors (Thermo Fischer Scientific, Cat. No.: A32959). […] Relative densitometry was determined, and the β-actin protein was used as a loading control.\nFinally, to test the potential involvement of GLUT1 and GLUT4 in myocardial ischemia-reperfusion injury, two compounds, namely KL-11743, a non-specific GLUT inhibitor, as well as STF-31, which is a GLUT1-specific inhibitor, were evaluated."}, "BCL-XL": {"system": "BCL-XL", "test": "BCL-XL anti-apoptotic protein in myocardium after I/R (Western blot)", "type": "in vivo, mouse (C57BL/6)", "conditions": "ML264-treated group; 30 min ischemia, 2 h reperfusion", "method": "(§4) The myocardial ischemia/reperfusion surgical protocol was applied as follows. Mice were anesthetized with 2% isoflurane inhalation until anesthesia was achieved. The animals' body temperature was maintained at 37 °C throughout the surgical procedure using a heating pad. A tracheal tube was placed via tracheal intubation and the respiration rate was set at 150 strokes/min with a tidal volume of 200 μL, using Minivent ventilator for mice (Model 845, Harvard Apparatus). A 1.2 cm incision was made over the left chest. After retraction of the pectoral major and minor muscles, the fourth intercostal space was exposed. […] The left anterior descending coronary artery (LAD) was then located, sutured, and ligated at a site 3-4 mm distal to the origin of the artery under the left atrium using a 6-0 silk suture. […] The mouse was then monitored during the recovery period, which was generally completed within 3 to 5 minutes. […]\nas §3\n(§5) In order to unravel the mechanisms of KLF5-mediated cardiotoxicity, oxidative stress levels were evaluated at early reperfusion. […]"}, "[3]": {"system": "myocardial ischemia-reperfusion injury in mice", "test": "Speckle tracking echocardiography in murine myocardial ischemia-reperfusion injury", "type": "in vivo, mouse (C57BL/6)", "conditions": "30 min ischemia, 24 h reperfusion; 25 mg/kg/12 h intraperitoneal; vs vehicle", "method": "Cardiac function was assessed by transthoracic echocardiography using the VisualSonics Vevo F2 system (VisualSonics, Toronto, ON). Sedation was induced by 3% isoflurane and maintained at 0.5% isoflurane during the procedure, during which the animals were placed on a heated table under a lamp at approximately 37 °C. Parasternal long axis (PSLAX) and short axis (SAX) images were recorded and then analyzed on a separate workstation with VevoLab software (Vevo 2100, v1.6, Visualsonic, Toronto, Canada). From the M-mode images, left ventricular cavity size for systole and diastole (LV dia;s, LV dia;d, LV Vol;s and LV Vol;d) were measured. Heart rate (HR), stroke volume (SV), and the echocardiographic calculation for fractional shortening (FS), ejection fraction (EF) and cardiac output (CO) were obtained using the Vevo software. Treatment and control groups were analyzed on the same day by the same technician in order to minimize variation. For VevoStrain analysis, B-mode images of 300 frames at greater than 200 frames/second were used.\nThe myocardial ischemia/reperfusion surgical protocol was applied as follows. Mice were anesthetized with 2% isoflurane inhalation until anesthesia was achieved. The animals' body temperature was maintained at 37 °C throughout the surgical procedure using a heating pad. A tracheal tube was placed via tracheal intubation and the respiration rate was set at 150 strokes/min with a tidal volume of 200 μL, using Minivent ventilator for mice (Model 845, Harvard Apparatus). A 1.2 cm incision was made over the left chest. After retraction of the pectoral major and minor muscles, the fourth intercostal space was exposed. […] The left anterior descending coronary artery (LAD) was then located, sutured, and ligated at a site 3-4 mm distal to the origin of the artery under the left atrium using a 6-0 silk suture. The heart was allowed to stabilize for 15 min and right after, ischemia was induced by tightening the suture against a small piece of polyethylene tube. At the end of the 30-minute ischemia period, the ligature was released for the induction of reperfusion, and then the manual evacuation of air and closure of muscle and skin were performed. The mouse was then monitored during the recovery period, which was generally completed within 3 to 5 minutes. Sustain-released buprenorphine (BupSR, 0.5 mg/kg body weight) was provided by subcutaneous injection. Mice were then left to recover until the end of the reperfusion (2 hours, 12 hours, 24 hours, or 4 weeks). The sham group underwent the same surgical procedure except that the LAD was not occluded.\nTo explore whether KLF5 inhibition holds therapeutic potential against myocardial I/R injury, WT mice were subjected to 30 minutes of ischemia, followed by 24 hours of reperfusion while being treated with a pharmacological KLF5 inhibitor, namely ML264. ML264 (25 mg/kg/12 h) was dissolved in 10% DMSO, 10% Tween 80, and 80% normal saline, and was administered by intraperitoneal injection in mice.\nA first dose of ML264 was administered five minutes before the reopening of the coronary artery, due to the clinical application that this time point holds, as well as previous reports about the importance of this time point regarding the pharmacological possibilities for the cardioprotection against I/R injury. 2D echocardiography was performed after 24 hours of reperfusion."}, "BAX": {"system": "BAX", "test": "BAX apoptotic protein in myocardium after I/R (Western blot)", "type": "in vivo, mouse (C57BL/6)", "conditions": "ML264-treated group; 30 min ischemia, 2 h reperfusion", "method": "as §4, §3, §5"}, "Glut4": {"system": "Glut4", "test": "Glut4 mRNA after I/R", "type": "in vivo, mouse", "conditions": "ML-264 treatment; vs I/R group treated with vehicle", "method": "as §1, §2"}, "KLF5": {"system": "KLF5", "test": "KLF5 protein expression (Western blot) in cardiac tissue, I/R mice", "type": "in vivo, mouse (C57BL/6)", "conditions": "30 minutes of ischemia; ML264 25 mg/kg/12 h intraperitoneal", "method": "as §4, with “suture. The heart was allowed to stabilize for 15 min and right after, ischemia was induced by tightening the suture against a small piece of polyethylene tube.” for “suture.”\nIsolated myocardial tissue/isolated primary murine cardiomyocytes were homogenized in radioimmunoprecipitation assay buffer (RIPA buffer) containing protease and phosphatase inhibitors (Thermo Fischer Scientific, Cat. No.: A32959). […] Relative densitometry was determined, and the β-actin protein was used as a loading control. […]"}, "IL-1β": {"system": "IL-1β", "test": "IL-1β mRNA in ischemic myocardium", "type": "in vivo, mouse (C57BL/6)", "conditions": "evaluated at 2 h and 24 h of reperfusion, vs vehicle", "method": "as §1, §2"}}}
{"smiles": "CN(C(=O)CNC(=O)/C=C/c1cccc(Cl)c1)C1CCS(=O)(=O)CC1", "note": "[ML264]", "values": [{"measurement": "Glut1 levels (mRNA)", "setting": "Glut1 [1]", "value": "trend towards reduced"}, {"measurement": "GLUT1 protein levels", "setting": "Glut1 [2]", "value": "trend towards suppression"}, {"measurement": "BCL-XL anti-apoptotic proteins", "setting": "BCL-XL", "value": "upregulation"}, {"measurement": "global circumferential strain", "setting": "[3]", "value": "significant increase"}, {"measurement": "lateral wall circumferential strain", "setting": "[3]", "value": "significant increase"}, {"measurement": "lateral wall circumferential strain rate", "setting": "[3]", "value": "significant increase"}, {"measurement": "lateral wall radial strain", "setting": "[3]", "value": "significant increase"}, {"measurement": "lateral wall radial strain rate", "setting": "[3]", "value": "significant increase"}, {"measurement": "BAX apoptotic proteins", "setting": "BAX", "value": "suppression"}, {"measurement": "Glut4 mRNA levels", "setting": "Glut4", "value": "significant suppression"}, {"measurement": "KLF5 protein expression in cardiac tissue", "setting": "KLF5", "value": "suppression was confirmed"}, {"measurement": "IL-1β mRNA levels", "setting": "IL-1β", "value": "Significant suppression"}]}
